This is an account of results in PubChem BioAssay AID488770 (The Scripps Research Institute Molecular Screening Center, 2010).

Activity calls are given as the source filed them.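 How the source made its calls: active means IC50 at or below 10 µM; inactive means IC50 above 10 µM.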 Bounds are passed on as bounds.

In the test the target is KH domain-containing RNA-binding protein QKI (Mus musculus) (UniProt Q9QYS9). The test is described as follows: blockers of quaking interaction with RNA – biochemical, fluorescence polarization, mouse QKI, powder samples, gld-1 inhibitor project, dose response (AID 488770). As to conditions: 1536-well.
KH domain-containing RNA-binding protein QKI (Mus musculus), sequence (Q9QYS9 whole entry, looked up, the tested form may be a part): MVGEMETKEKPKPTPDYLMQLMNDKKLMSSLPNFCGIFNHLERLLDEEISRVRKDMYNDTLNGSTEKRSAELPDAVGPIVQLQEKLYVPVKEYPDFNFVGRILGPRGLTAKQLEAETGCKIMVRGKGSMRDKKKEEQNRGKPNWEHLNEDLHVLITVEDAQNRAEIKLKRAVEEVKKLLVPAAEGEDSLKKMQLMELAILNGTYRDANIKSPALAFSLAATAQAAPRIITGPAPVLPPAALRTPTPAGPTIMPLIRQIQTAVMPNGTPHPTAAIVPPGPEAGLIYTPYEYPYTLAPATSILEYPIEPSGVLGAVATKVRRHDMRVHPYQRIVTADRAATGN
Turning to `Cc1ccc(S(=O)(=O)Nc2cc3c(C(=O)Nc4ccccc4)c(C)oc3c3ccccc23)cc1`, the IC50 was 262 nM. For `O=C(CN1C(=O)NC2(CCCCC2)C1=O)Oc1ccc2c(C(F)(F)F)cc(=O)oc2c1` the value was 2130 nM; for `Nc1c(O)ccc2c1C(=O)c1ccccc1C2=O`, 2530 nM. For `O=c1[nH]c(=O)c2nc3ccccc3nc2[nH]1` the value was “inactive”; for `O=c1[nH]c2cc3ccccc3cc2nc1C(F)(F)F`, 1170 nM. For the compound `CCOC(=O)c1c(C)oc2c1cc(NS(=O)(=O)c1ccc(C)cc1)c1ccccc12`, the IC50 is > 59600 nM (inactive). Then `O=C1C2=C(SCCS2)C(=O)N1CCCO`, with 2240 nM. Take `Cc1ccc(S(=O)(=O)Nc2cc3c(C(=O)Nc4ccccc4)c(C)oc3c3ccccc23)c(C)c1`: the IC50 is 419 nM. Then `CC1=CC(=O)c2c(O)ccc(O)c2C1=O`, with 5620 nM; and `Nc1ccc(O)c2c1C(=O)c1ccccc1C2=O`, with 2280 nM; and `COc1ccc(/C=C(\CC(=O)O)c2nc3ccccc3s2)cc1O`, with 155 nM. Then `CCCCn1c(=O)[nH]c2nc3cc(NC(C)=O)ccc3nc2c1=O`, with 1590 nM; and `CCN(CC)S(=O)(=O)c1ccc(N2CCCC2)c(NS(=O)(=O)c2ccc(F)cc2)c1`, with 1620 nM; and `Nc1ccc2nonc2c1[N+](=O)[O-]`, with > 59600 nM (inactive). Then `COc1ccc(C=Nc2c(-c3ccco3)nc3ccccn23)cc1OC`, with “inactive”.
